Laboratory results: ChEMBL document CHEMBL6074667, “Discovery and Optimization of First-in-Class Molecular Glue Degraders of the WIZ Transcription Factor for Fetal Hemoglobin Induction to Treat Sickle Cell Disease” (J Med Chem, 2024)
In brackets after ≈: the same amount, converted by molar mass. Activity calls are given as the source filed them. No cut-off for these calls is given here.

How the values were obtained:
[1] = Protein binding in human plasma; format: ADME, cell-free; conditions: read-out: PPB (converted)
[2] = Bioavailability last in C57BL/6 mouse; format: ADME, organism-based; conditions: in vivo
[3] = target: T1, Protein cereblon/Eukaryotic peptide chain release factor GTP-binding subunit ERF3A (Homo sapiens, UniProt Q96SW2+P15170); test: Molecular glue activity at CRBN/HiBiT-tagged GSPT1 (unknown origin) expressed in human GripTite 293 MSR cells assessed as induction of GSPT1 degradation incubated for 20 hrs by Nano-Glo HiBiT-Lytic reagent based luminescence plate reader analysis; format: cell-based
[4] = AUClast in C57BL/6 mouse at 3 mg/kg, po; format: ADME, organism-based; conditions: in vivo
[5] = Protein binding in rat plasma; format: ADME, cell-free; conditions: read-out: PPB (converted)
[6] = target: T1, Protein cereblon/Eukaryotic peptide chain release factor GTP-binding subunit ERF3A; test: Molecular glue activity at CRBN/HiBiT-tagged GSPT1 (unknown origin) expressed in human GripTite 293 MSR cells assessed as induction of GSPT1 degradation incubated for 20 hrs by Nano-Glo HiBiT-Lytic reagent based luminescence plate reader analysis relative to control; format: cell-based; set-up: concentration or dose not given beside the values
Target sequence in this assay (P15170 whole entry, looked up): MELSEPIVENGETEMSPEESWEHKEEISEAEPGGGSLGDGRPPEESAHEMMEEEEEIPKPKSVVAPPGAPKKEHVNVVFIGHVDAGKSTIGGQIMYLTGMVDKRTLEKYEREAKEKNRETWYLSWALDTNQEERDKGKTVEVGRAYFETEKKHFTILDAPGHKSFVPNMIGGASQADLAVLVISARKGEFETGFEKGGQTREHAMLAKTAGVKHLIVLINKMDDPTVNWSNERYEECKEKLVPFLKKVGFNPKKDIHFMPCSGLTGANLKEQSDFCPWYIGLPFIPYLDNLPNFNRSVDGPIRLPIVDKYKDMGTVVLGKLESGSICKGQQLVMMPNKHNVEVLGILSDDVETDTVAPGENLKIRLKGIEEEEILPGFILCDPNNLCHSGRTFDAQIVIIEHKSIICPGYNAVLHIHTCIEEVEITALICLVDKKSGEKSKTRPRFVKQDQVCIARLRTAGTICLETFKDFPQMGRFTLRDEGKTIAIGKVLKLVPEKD
Target sequence in this assay (Q96SW2 whole entry, looked up): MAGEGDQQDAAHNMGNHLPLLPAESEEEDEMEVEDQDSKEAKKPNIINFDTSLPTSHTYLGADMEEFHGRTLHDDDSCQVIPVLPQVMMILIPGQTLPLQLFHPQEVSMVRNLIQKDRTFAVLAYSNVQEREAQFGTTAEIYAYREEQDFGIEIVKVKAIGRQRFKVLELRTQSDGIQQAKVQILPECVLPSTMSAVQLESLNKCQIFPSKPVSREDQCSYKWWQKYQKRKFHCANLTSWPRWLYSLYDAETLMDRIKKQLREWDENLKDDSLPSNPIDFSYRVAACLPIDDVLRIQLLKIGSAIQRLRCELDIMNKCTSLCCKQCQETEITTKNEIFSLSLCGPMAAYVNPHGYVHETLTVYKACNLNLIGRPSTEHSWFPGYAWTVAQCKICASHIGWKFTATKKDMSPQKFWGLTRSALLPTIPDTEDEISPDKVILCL

[7] = Volume of distribution at steady state in C57BL/6 mouse at 1 mg/kg, iv; format: ADME, organism-based; conditions: in vivo, read-out: Vdss
[8] = target: Protein cereblon/Protein Wiz (Homo sapiens, UniProt O95785+Q96SW2); test: Molecular glue activity at CRBN/WIZ in human CD34-positive derived primary erythroblast cells assessed as increase in fetal hemoglobin positive cells in CD71+ CD235a+ subpopulation measured after 7 days by flow cytometric analysis; format: cell-based
[9] = Tmax in C57BL/6 mouse at 3 mg/kg, po or 1 mg/kg, iv; format: ADME, organism-based; conditions: in vivo
[10] = target: T2, Protein cereblon/Sal-like protein 4 (Homo sapiens, UniProt Q96SW2+Q9UJQ4); test: Molecular glue activity at CRBN/HiBiT-tagged SALL4 (unknown origin) expressed in human GripTite 293 MSR cells assessed as induction of SALL4 degradation incubated for 20 hrs by Nano-Glo HiBiT-Lytic reagent based luminescence plate reader analysis relative to control; format: cell-based; set-up: concentration or dose not given beside the values
Target sequence in this assay (Q96SW2 whole entry, looked up): as above
Target sequence in this assay (Q9UJQ4 whole entry, looked up): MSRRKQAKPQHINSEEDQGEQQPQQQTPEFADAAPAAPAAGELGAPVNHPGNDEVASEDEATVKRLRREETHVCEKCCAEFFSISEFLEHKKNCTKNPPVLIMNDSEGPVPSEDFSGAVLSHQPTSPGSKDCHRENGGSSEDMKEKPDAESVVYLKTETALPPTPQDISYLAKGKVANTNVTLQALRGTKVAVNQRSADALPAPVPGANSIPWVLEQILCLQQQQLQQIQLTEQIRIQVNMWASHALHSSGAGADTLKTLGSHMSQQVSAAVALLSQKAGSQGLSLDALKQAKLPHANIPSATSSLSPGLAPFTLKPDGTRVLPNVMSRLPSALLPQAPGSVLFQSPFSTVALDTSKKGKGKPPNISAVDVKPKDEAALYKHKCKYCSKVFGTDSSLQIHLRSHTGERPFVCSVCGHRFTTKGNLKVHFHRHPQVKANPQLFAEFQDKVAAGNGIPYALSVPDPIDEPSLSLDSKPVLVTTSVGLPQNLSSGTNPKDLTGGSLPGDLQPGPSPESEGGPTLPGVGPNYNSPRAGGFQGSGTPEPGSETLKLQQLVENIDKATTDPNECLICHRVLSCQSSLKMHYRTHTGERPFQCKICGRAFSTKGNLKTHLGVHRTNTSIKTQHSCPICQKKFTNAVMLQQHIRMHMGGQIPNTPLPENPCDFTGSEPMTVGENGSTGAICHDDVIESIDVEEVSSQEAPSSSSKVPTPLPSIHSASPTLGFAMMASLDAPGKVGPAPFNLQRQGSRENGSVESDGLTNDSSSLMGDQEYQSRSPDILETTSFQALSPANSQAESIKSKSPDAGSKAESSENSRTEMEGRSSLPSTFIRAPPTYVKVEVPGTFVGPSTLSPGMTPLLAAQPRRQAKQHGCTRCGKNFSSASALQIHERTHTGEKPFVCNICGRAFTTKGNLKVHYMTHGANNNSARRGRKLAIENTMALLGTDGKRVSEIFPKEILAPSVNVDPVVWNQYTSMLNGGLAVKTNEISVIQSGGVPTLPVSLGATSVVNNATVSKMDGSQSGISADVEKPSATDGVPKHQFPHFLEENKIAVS

[11] = target: T3, Protein cereblon/Protein Wiz (Homo sapiens, UniProt Q96SW2+O95785); test: Molecular glue activity at CRBN/WIZ in human CD34-positive derived primary erythroblast cells assessed as induction of WIZ degradation by measuring maximal efficacy measured after 24 hrs by flow cytometric analysis relative to control; format: cell-based
[12] = target: T2, Protein cereblon/Sal-like protein 4; test: Molecular glue activity at CRBN/HiBiT-tagged SALL4 (unknown origin) expressed in human GripTite 293 MSR cells assessed as induction of SALL4 degradation incubated for 20 hrs by Nano-Glo HiBiT-Lytic reagent based luminescence plate reader analysis; format: cell-based
Target sequence in this assay (Q96SW2 whole entry): as the sequence (Q96SW2 whole entry, looked up) above
Target sequence in this assay (Q9UJQ4 whole entry): as the sequence (Q9UJQ4 whole entry, looked up) above

Cereblon/Ikaros [13] = target: T4, Cereblon/Ikaros (Homo sapiens, UniProt Q96SW2+Q13422); test: Molecular glue activity at CRBN/HiBiT-tagged IKZF1 (unknown origin) expressed in human GripTite 293 MSR cells assessed as induction of […] incubated for 20 hrs by Nano-Glo HiBiT-Lytic reagent based luminescence plate reader analysis; format: cell-based
T4 sequence (Q96SW2 whole entry): as the sequence (Q96SW2 whole entry, looked up) above
T4 sequence (Q13422 whole entry): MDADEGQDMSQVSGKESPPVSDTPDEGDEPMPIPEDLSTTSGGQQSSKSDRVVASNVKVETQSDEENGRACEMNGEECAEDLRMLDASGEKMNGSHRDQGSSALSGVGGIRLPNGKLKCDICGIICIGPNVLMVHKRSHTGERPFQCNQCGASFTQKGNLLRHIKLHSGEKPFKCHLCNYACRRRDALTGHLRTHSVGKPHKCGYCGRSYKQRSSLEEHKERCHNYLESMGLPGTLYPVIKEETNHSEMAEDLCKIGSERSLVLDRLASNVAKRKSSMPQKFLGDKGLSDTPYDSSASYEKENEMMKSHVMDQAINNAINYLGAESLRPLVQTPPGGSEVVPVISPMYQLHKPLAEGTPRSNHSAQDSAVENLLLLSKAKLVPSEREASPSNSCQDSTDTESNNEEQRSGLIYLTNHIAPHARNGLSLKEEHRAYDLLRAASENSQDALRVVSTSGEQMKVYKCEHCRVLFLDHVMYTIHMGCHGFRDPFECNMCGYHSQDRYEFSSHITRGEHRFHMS

[14] = Apparent permeability across apical to basolateral side in low efflux MDCK cells assessed as drug recovery at 10 uM incubated for 2 hrs by LC-MS analysis; format: ADME, cell-based, Canis lupus familiaris; conditions: dog, read-out: Drug recovery
[15] = target: T3, Protein cereblon/Protein Wiz; test: Molecular glue activity at CRBN/HiBiT-tagged WIZ (unknown origin) expressed in HEK293T cells assessed as induction of WIZ degradation incubated for 18 hrs by Nano-Glo HiBiT-Lytic reagent based luminescence plate reader analysis relative to control; format: cell-based; set-up: concentration or dose not given beside the values
[16] = target: T3, Protein cereblon/Protein Wiz; test: Molecular glue activity at CRBN/HiBiT-tagged WIZ (unknown origin) expressed in HEK293T cells assessed as induction of WIZ degradation incubated for 18 hrs by Nano-Glo HiBiT-Lytic reagent based luminescence plate reader analysis; format: cell-based
[17] = Cmax in C57BL/6 mouse at 3 mg/kg, po; format: ADME, organism-based; conditions: in vivo
[18] = Clearance in C57BL/6 mouse at 1 mg/kg, iv; format: ADME, organism-based; conditions: in vivo
[19] = Apparent permeability across apical to basolateral side in low efflux MDCK cells at 10 uM incubated for 2 hrs by LC-MS analysis; format: ADME, cell-based, Canis lupus familiaris; conditions: dog
[20] = Intrinsic clearance in human liver microsomes; format: ADME, Microsome; conditions: read-out: CLH
[21] = Half-life in C57BL/6 mouse at 1 mg/kg, iv; format: ADME, organism-based; conditions: in vivo
[22] = Solubility of compound in potassium phosphate buffer at pH 6.8 incubated for 16 to 24 hrs by high-throughput Agilent Rapidfire-MS/MS analysis; format: physicochemical; conditions: time 16-24 hrs
[23] = Intrinsic clearance in rat liver microsomes; format: ADME, Microsome; conditions: read-out: CLH
[24] = Intrinsic clearance in mouse liver microsomes; format: ADME, Microsome; conditions: read-out: CLH
[25] = target: T3, Protein cereblon/Protein Wiz; test: Molecular glue activity at CRBN/WIZ in human CD34-positive derived primary erythroblast cells assessed as increase in fetal hemoglobin positive cells in CD71+ CD235a+ subpopulation measured after 7 days by flow cytometric analysis relative to control; format: cell-based; conditions: time 7.0 day
Cereblon/Ikaros [26] = target: T4, Cereblon/Ikaros; test: Molecular glue activity at CRBN/HiBiT-tagged IKZF1 (unknown origin) expressed in human GripTite 293 MSR cells assessed as induction of […] incubated for 20 hrs by Nano-Glo HiBiT-Lytic reagent based luminescence plate reader analysis relative to control; format: cell-based; set-up: concentration or dose not given beside the values
[27] = target: T3, Protein cereblon/Protein Wiz; test: Molecular glue activity at CRBN/WIZ in human CD34-positive derived primary erythroblast cells assessed as induction of WIZ degradation measured after 24 hrs by flow cytometric analysis; format: cell-based
[28] = Protein binding in mouse plasma; format: ADME, cell-free; conditions: read-out: PPB (converted)
[29] = Toxicity in immunocompromised naive NBSGW mouse xenografted with human CD34 positive HSPC cells assessed as effect on body weight at 0.01 to 1 mg/kg, po administered once daily for 21 days; format: organism-based; conditions: in vivo, 504 h, dose 0.01-1 mg/kg, time 21 day
[30] = target: T3, Protein cereblon/Protein Wiz; test: Molecular glue activity at CRBN/WIZ in human CD34-positive derived primary erythroblast assessed as induction of WIZ degradation by flow cytometric analysis; format: cell-based
[31] = target: T3, Protein cereblon/Protein Wiz; test: Molecular glue activity at CRBN/WIZ in human CD34-positive derived primary erythroblast assessed as induction fetal hemoglobin by flow cytometric analysis; format: cell-based
[32] = target: T3, Protein cereblon/Protein Wiz; test: In vivo molecular glue activity at CRBN/WIZ in immunocompromised naive NBSGW mouse xenografted with human CD34 positive HSPC cells assessed as induction of WIZ degradation in peripheral blood human […] B cells administered orally once daily for 21 days by staining based analysis; format: functional, organism-based; conditions: route po, time 21.0 day
[33] = target: T3, Protein cereblon/Protein Wiz; test: In vivo molecular glue activity at CRBN/WIZ in immunocompromised naive NBSGW mouse xenografted with human CD34 positive HSPC cells assessed as fold increase in Hbf-positive cells in moCD45 negative hCD45negative CD71positive CD235A positive bone marrow cells at 1 to 10 mg/kg, po administered once daily for 21 days by staining based analysis; format: functional, organism-based; conditions: dose 1-10 mg/kg, time 21.0 day
[34] = target: T3, Protein cereblon/Protein Wiz; test: In vivo molecular glue activity at CRBN/WIZ in immunocompromised naive NBSGW mouse xenografted with human CD34 positive HSPC cells assessed as induction of WIZ degradation in peripheral blood human C19-positive B cells by measuring maximal efficacy at 1 to 10 mg/kg, po administered once daily for 21 days by staining based analysis relative to control; format: functional, organism-based; conditions: dose 1-10 mg/kg, time 21.0 day
[35] = Toxicity in immunocompromised naive NBSGW mouse xenografted with human CD34 positive HSPC cells assessed as effect on body weight at 1 to 10 mg/kg, po administered once daily for 21 days; format: organism-based; conditions: in vivo, 504 h, dose 1-10 mg/kg, time 21 day

| SMILES | fraction unbound [1] | bioavailability [2] [%] | AUC(0-t) [4] [µM·h] | fraction unbound [5] | Activity [6] [%] | Vd [7] [L/kg] | Tmax [9] [h] | Activity [10] [%] | recovery at 2 h, 10 µM [14] [%] | Activity [15] [%] | Cmax [17] [nM] | clearance [18] [mL/min/kg] | Papp A→B at 2 h, 10 µM [19] [×10⁻⁶ cm/s] | microsomal CLint [20] [µL/min/mg] | half-life [21] [h] | solubility [22] [µM] | microsomal CLint [23] [µL/min/mg] | microsomal CLint [24] [µL/min/mg] | Activity (Cereblon/Ikaros [26]) [%] | fraction unbound [28] | further results |
| --- | --- | --- | --- | --- | --- | --- | --- | --- | --- | --- | --- | --- | --- | --- | --- | --- | --- | --- | --- | --- | --- |
| CCN1C[C@H](Oc2ccc3c(c2)CN(C2CCC(=O)NC2=O)C3=O)CC[C@@H]1C (some centres not stated) | 0.72 | 8.5 | 0.377 | 0.71 | < 10 | 4.4 | 1 | 32 | 75 | 88 | 118 | 29 | 0.3 | < 25 | 3.2 | 480 (≈ 185 µg/mL) | < 25 | < 25 | 10 | 0.77 | DC50 [3]: > 50000 nM; EC50 [8]: 78 nM; Emax [11]: 84%; DC50 [12]: > 50000 nM; DC50 (Cereblon/Ikaros [13]): > 50000 nM; DC50 [16]: 3 nM; Activity [25]: 36%; DC50 [27]: 3 nM |
| CCN1C[C@H](C)C[C@@H](Oc2ccc3c(c2)CN(C2CCC(=O)NC2=O)C3=O)C1 (stereo in doubt; 10) | 0.76 | 23 | 1.12 | > 0.8 |  | 2.8 | 1.7 |  | 84 |  | 224 | 29 | 0.5 | < 10 | 2.2 | 380 (≈ 146 µg/mL) | < 10 | < 10 |  | > 0.8 | EC50 [8]: 40 nM; Activity [29]: Non-toxic; DC50 [16]: 3 nM; DC50 [27]: 2 nM |
| CCN1C[C@H](C)C[C@@H](Oc2ccc3c(c2)CN(C2CCC(=O)NC2=O)C3=O)C1 (mixture of isomers) [listing 1 of 2 here] |  |  |  |  |  |  |  |  |  |  |  |  |  |  |  |  |  |  |  |  | DC50 [3]: > 50000 nM; DC50 [12]: > 50000 nM; DC50 (Cereblon/Ikaros [13]): > 50000 nM; DC50 [16]: 13 nM |
| C[C@@H](Oc1ccc2c(c1)CN(C1CCC(=O)NC1=O)C2=O)[C@H]1CCCCN1C (some centres not stated) | 0.69 | 2.7 | 0.115 | 0.58 | < 11 | 2.9 | 3 | 58 | 66 | 93 | 24 | 28 | 0.37 | < 25 | 1.9 | 640 (≈ 247 µg/mL) | < 25 | < 25 | < 11 | > 0.8 | Activity [30]: Active; Activity [31]: Active |
| CCN1CCCC[C@@H]1COc1ccc2c(c1)CN(C1CCC(=O)NC1=O)C2=O (some centres not stated) | > 0.8 | 13 | 0.713 | > 0.8 | < 10 | 2.2 | 2.3 | 50 | 95 | 82 | 157 | 22 | 1.1 | < 25 | 1.7 | 450 (≈ 173 µg/mL) | < 25 | < 25 | < 10 | > 0.8 | DC50 [3]: > 50000 nM; Activity [32]: Dose-dependent-effect; Emax [11]: 74%; DC50 [12]: 3800 nM; fold change (FC) [33]: 5; DC50 (Cereblon/Ikaros [13]): > 50000 nM; Activity [25]: 20%; Emax [34]: 63%; Activity [35]: Non-toxic |
| CCN1C[C@H](C)C[C@@H](Oc2ccc3c(c2)CN(C2CCC(=O)NC2=O)C3=O)C1 (mixture of isomers) [listing 2 of 2 here] |  |  |  |  | < 10 |  |  | 15 |  | 78 |  |  |  |  |  |  |  |  | < 10 |  |  |
